Measured values: paper PMC6150275, “Synthesis and Molecular Modeling Studies of N′-Hydroxyindazolecarboximidamides as Novel Indoleamine 2,3-Dioxygenase 1 (IDO1) Inhibitors” (Molecules : A Journal of Synthetic Chemistry and Natural …, 2017)
“Also recorded” adds a separate entry of the source. Like-named read-outs stand apart in the source and are kept apart here.

Assays:
[1] = target: T1, human IDO1 expressing HEK293 recombinant cells (Homo sapiens, UniProt P14902); experiment: Cell based assay for anti-IDO1 activity by determination of tryptophan and kynurenine in culture supernatant using LC-MS; details: for IC50: human IDO1-expressing HEK293 cells, doxycycline induced, 24 h, dose-response curve
T1 construct: expressed in transfected cells; host or cells: Flp-In-Rex- HEK293 cells (Invitrogen), pcDNA5/FRT/TO vector, doxycycline-induced
Protocol: All synthesized compounds were evaluated for inhibitory activities against IDO1. For this purpose, we generated human IDO1 gene-expressing HEK293 recombinant cells and used those cells to analyze the inhibitory capacity of the compounds. Briefly, we induced the expression vector system of IDO1 by treating […] cells with doxycycline, and measured both the depletion of L-tryptophan in culture media and the generation of kynurenine in IDO1-overexpressing HEK293 cells by using the LC-MS system upon culture supernatants.
cDNA of human IDO1 gene (provided from Korean UniGene, Daejeon, Korea) was inserted into pcDNA5/FRT/TO expression vector (Invitrogen, Waltham, MA, USA) and transfected into Flp-In-Rex- HEK293 cells (Invitrogen). After transfection, homogenous IDO1 expressing HEK293 cells were selected using hygromycin and confirmed for their IDO1 expression using Western blot.
To analyze anti-IDO1 activity of compounds, human IDO1 expressing HEK293 recombinant cells were seeded in 100 μL of complete MEM media containing 10% FBS in a 96-well plate. After incubation for 48 hours, various concentrations of compounds with 0.2 ng/mL doxycyclin (Sigma Aldrich, St. Louis, MO, USA) was treated and incubated for 24 h. Culture supernatants were collected and prepared for analysis of tryptophan and kynurenine using LC-MS. For preparation of samples for LC-MS analysis, 30 μL of culture supernatant was mixed with 2 μM caffeine containing 270 μL methanol. After centrifugation at 12,000 rpm for 10 min, 100 μL of supernatant was transferred into new 1.5 mL tubes. Distilled water (900 μL) was added into 100 μL of supernatant and vortexed. The concentrations of tryptophan and kynurenine were determined by an LC-MS/MS system consisting of an Agilent 1200 series HPLC system (Agilent Technologies, Santa Clara, CA, USA) with an API 4000 QTRAP hybrid triple quadrupole/linear ion trap mass spectrometer (AB Sciex, Foster City, CA, USA) equipped with a turbo electrospray interface. Chromatographic separation of tryptophan and kynurenine was achieved on a Unison UK-C18 column (100 mm × 2 mm i.d., 3 μm; Imtakt, Kyoto, Japan) with a Security Guard C18 guard column (4 mm × 20 mm i.d.; Phenomenex, Torrance, CA, USA) maintained at 25 °C. Isocratic mode was used to achieve separation of the analytes using mobile phase (acetonitrile with 0.1 formic acid and water with 0.1% formic acid (20:80 v/v) at a flow rate of 300 μL/min for 3 min. The multiple reaction monitoring (MRM) transition was m/z 204.94 → 188.1 for tryptophan and m/z 208.97 → 192.00 for kynurenine under positive-ionization. Optimized values for de-clustering potential, collision energy, entrance potential, and collision-exit potential were 26 V, 15 eV, 9.5 V and 8 V and 21 V, 13 eV, 10 V and 8 V for tryptophan and kynurenine, respectively. The optimized instrument conditions were as follows: ion spray voltage, 5500 V; source temperature, 450 °C; curtain gas, 25 psi; nebulizing gas (GS1), 30 psi; heating gas (GS2), 30 psi. Data analysis was performed using Analyst Software version 1.4.2. (AB Sciex, Foster City, CA, USA).

hIDO1 = target: T2, hIDO1 (Homo sapiens, UniProt P14902); experiment: hIDO1 enzymatic assay (BPS Bioscience IDO1 inhibitor screening assay kit); format: biochemical; details: for inhibition at 20 µM: 20 µM compound, enzymatic assay
T2 construct: purchased BPS Bioscience (San Diego, CA, USA)
Protocol: To analyze the hIDO1 inhibitory activities of compounds, we used IDO1 inhibitor screening assay kit and followed the protocol provided from BPS Bioscience (San Diego, CA, USA). Briefly, 5 μL of IDO solution was aliquoted into a 384-well plate and treated with 5 μL of compound in buffer at room temperature for 3 h. The data was measured at λ = 320 to 325 nm.

[2] = kynurenine by LC-MS, read-out: HEK293 IC50 Kynurenine Production
[3] = tryptophan by LC-MS, read-out: HEK293 IC50 Tryptophan Depletion

T2 sequence (P14902 whole entry): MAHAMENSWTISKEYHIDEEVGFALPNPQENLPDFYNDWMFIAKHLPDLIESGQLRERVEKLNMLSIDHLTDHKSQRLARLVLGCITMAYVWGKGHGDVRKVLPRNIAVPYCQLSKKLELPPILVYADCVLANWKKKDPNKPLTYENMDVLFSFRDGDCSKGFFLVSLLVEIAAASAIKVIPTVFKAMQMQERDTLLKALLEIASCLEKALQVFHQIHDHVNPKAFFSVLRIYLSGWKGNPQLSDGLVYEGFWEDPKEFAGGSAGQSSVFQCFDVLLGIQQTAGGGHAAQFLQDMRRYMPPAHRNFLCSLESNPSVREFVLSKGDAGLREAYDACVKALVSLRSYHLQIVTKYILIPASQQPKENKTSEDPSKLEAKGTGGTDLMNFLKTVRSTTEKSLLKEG
T1 sequence (P14902 whole entry): as above

SMILES	IDO1 inhibition in cell-based assay (in words) [1]	IC50 [1, 2]	IC50 [1, 3]	inhibition at 20 µM (hIDO1)	hIDO1 inhibition in enzymatic assay (in words) (hIDO1)
O/N=C(\Nc1ccc(F)c(Br)c1)c1cccc2cn[nH]c12 [Compound 8a, (Z)-N-(3-Bromo-4-fluorophenyl)-N′-hydroxy-1H-indazole-7-carboximidamide]	most active in this series; also recorded: moderate IDO1 inhibitory activity	2.13 µM	1.76 µM	81%	–
O/N=C(\Nc1ccc(F)c(Cl)c1)c1cccc2cn[nH]c12 [Compound 8b, (Z)-N-(3-Chloro-4-fluorophenyl)-N′-hydroxy-1H-indazole-7-carboximidamide]	–	3.14 µM	3.26 µM	79%	–
O/N=C(\Nc1cccc(Cl)c1)c1cccc2cn[nH]c12 [Compound 8c, (Z)-N-(3-Chlorophenyl)-N′-hydroxy-1H-indazole-7-carboximidamide]	–	4.89 µM	4.95 µM	77%	–
O/N=C(\Nc1ccc(F)cc1)c1cccc2cn[nH]c12 [Compound 8d, (Z)-N-(4-Fluorophenyl)-N′-hydroxy-1H-indazole-7-carboximidamide]	–	> 10 µM	> 10 µM	–	–
O/N=C(\Nc1cc(F)ccc1F)c1cccc2cn[nH]c12 [Compound 8e, (Z)-N-(2,5-Difluorophenyl)-N′-hydroxy-1H-indazole-7-carboximidamide]	–	> 10 µM	> 10 µM	–	–
CC(=O)c1cccc(N/C(=N\O)c2cccc3cn[nH]c23)c1 [Compound 8f, (Z)-N-(3-Acetylphenyl)-N′-hydroxy-1H-indazole-7-carboximidamide]	–	> 10 µM	> 10 µM	–	–
Cc1cccc(N/C(=N\O)c2cccc3cn[nH]c23)c1 [Compound 8g, (Z)-N′-Hydroxy-N-(m-tolyl)-1H-indazole-7-carboximidamide]	–	> 10 µM	> 10 µM	–	–
Cc1cc(N/C(=N\O)c2cccc3cn[nH]c23)ccc1Cl [Compound 8h, (Z)-N-(4-Chloro-3-methylphenyl)-N′-hydroxy-1H-indazole-7-carboximidamide]	–	> 10 µM	> 10 µM	–	–
COc1ccc(N/C(=N\O)c2cccc3cn[nH]c23)cc1Cl [Compound 8i, (Z)-N-(3-Chloro-4-methoxyphenyl)-N′-hydroxy-1H-indazole-7-carboximidamide]	–	> 10 µM	> 10 µM	–	–
O/N=C(\Nc1ccccc1)c1cccc2cn[nH]c12 [Compound 8j, (Z)-N′-Hydroxy-N-phenyl-1H-indazole-7-carboximidamide]	–	> 10 µM	> 10 µM	–	–
O/N=C(\Nc1ccc(Cl)cc1)c1cccc2cn[nH]c12 [Compound 8k, (Z)-N-(4-Chlorophenyl)-N′-hydroxy-1H-indazole-7-carboximidamide]	–	> 10 µM	> 10 µM	–	–
COc1ccc(N/C(=N\O)c2cccc3cn[nH]c23)cc1 [Compound 8l, (Z)-N′-Hydroxy-N-(4-methoxyphenyl)-1H-indazole-7-carboximidamide]	–	> 10 µM	> 10 µM	–	–
Cc1ccc(N/C(=N\O)c2cccc3cn[nH]c23)cc1 [Compound 8m, (Z)-N′-Hydroxy-N-(p-tolyl)-1H-indazole-7-carboximidamide]	–	> 10 µM	> 10 µM	–	–
Cn1ncc2cccc(/C(=N/O)Nc3ccc(F)c(Br)c3)c21 [Compound 12, (Z)-N-(3-Bromo-4-fluorophenyl)-N′-hydroxy-1-methyl-1H-indazole-7-carboximidamide]	did not inhibit IDO1	> 10 µM	> 10 µM	15%	did not inhibit IDO1
O/N=C(\Nc1ccc(F)c(Br)c1)c1ccccc1O [Compound 16, (Z)-N-(3-Bromo-4-fluorophenyl)-N′,2-dihydroxybenzimidamide]	moderate inhibitory activity	7.91 µM	7.76 µM	–	–
